According to PMC11403612, “Preparation and Preclinical Characterization of a Simple Ester for Dual Exogenous Supply of Lactate and Beta-hydroxybutyrate” (Journal of Agricultural and Food Chemistry, 2024):

Assay: Microsomal stability of LaKe, human
Assay type: in vitro ADME
Description: The in vitro stability of LaKe was evaluated following incubation in simulated gastric fluid (SGF), simulated intestinal fluid (SIF), fresh and frozen plasma (rats and humans, respectively), and the presence of hepatocytes (rats and humans) and liver microsomes (rats and humans). At the chosen time points, the mixtures were analyzed by LC-MS/MS to quantify the remaining LaKe and all assays included at least one control compound with known pharmacokinetic properties.
Hepatocyte stability of LaKe
Cells: Rat hepatocytes (BioreclamationIVT, M0005); Human hepatocytes (BioreclamationIVT, X008001) Thawing Medium: Williams’ Medium E containing 5% fetal bovine serum and 30% Percoll solution and other […]
Incubation Medium: Williams’ Medium E (no phenol red) containing 2 mM L-Glutamine and 25 mM HEPES.
Stop Solution: Acetonitrile containing 200 ng/mL tolbutamide and labetalol as internal standards.
Dilution Solution: Ultra-pure water.
Preparation of Quenching Plate: Transfer 125 μL of stop solution (acetonitrile containing 200 ng/mL tolbutamide and 200 ng/mL labetalol as internal standards) in a set of pre-labeled 96-well plates.
Cryopreserved cells were thawed, isolated and suspended in Incubation Medium, then diluted with pre-warmed Incubation Medium to 0.5 × 10^6 cells/mL. 198 μL of pre-warmed cell suspensions were added in 96-well plates. […]

CC(O)CCOC(=O)C(C)O (centres unmarked) [LaKe, 3-hydroxybutyl 2-hydroxypropanoate]
LaKe remaining (human liver microsomes, absence of NADPH, after 60 min): 82%
turnover in liver microsomes (presence of NADPH): underwent turnover
